Source: patent publication US20250304620A1, “ANTIMICROBIAL PEPTIDE AND APPLICATION THEREOF” (priority 2023, published 2025)
Values after ≈ are worked out from the molar mass of the structure shown. Marks after values point to notes of the source that are not given here. Non-standard residues stand in square brackets, D forms with d. Residues, ends and D or L forms follow the SMILES beside them. d2Nal = N[C@H](Cc1ccc2ccccc2c1)C(=O)O

Legend:
[1] = test system: Shigella flexneri ATCC 12022; assay: MIC against clinically common bacterial strain; format: cell-based
Method in brief: (§1)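 MICs were determined by serial twofold dilution in microdilution format, following CLSI antimicrobial susceptibility testing standards. Each determination was repeated 5 times in parallel.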

[2] = test system: Escherichia coli ATCC 25922; assay: Oral formulations on mice with systemic bacterial infection; format: in vivo, ICR mice; details: 1 mg/kg gavage, three times a day for 7 days, n = 10; for Average survival times (Days): observed for 14 d
Method in brief: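 ICR mice of both sexes, 10 per group, infected i.p. with 0.2 mL E. coli ATCC 25922 at 1×10^7 CFU/mL. Compounds gavaged by body weight immediately after infection, three times daily for 7 days; deaths and survival time recorded over 14 d observation.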

[3] = test system: Pseudomonas aeruginosa ATCC 27853; assay: Injectable formulations on mice infected with peritonitis; format: in vivo, ICR mice; details: 1 mg/kg via tail vein, twice a day for 3 days, n = 10; for Average survival times (Days): observed for 14 d
Method in brief: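 ICR mice of both sexes (10 per group) infected intraperitoneally with 0.2 mL P. aeruginosa ATCC 27853 at 1×10^9 CFU/mL. Injectable formulations dosed by body weight via tail vein twice daily for 3 days; deaths and survival time recorded over 14 d.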

[4] = test system: carbapenem-resistant Pseudomonas aeruginosa (CRPA); format: cell-based; details: carbapenem-resistant (CRPA)
Method in brief: (§2)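 Antimicrobial peptide susceptibility is measured against clinically isolated resistant bacteria using the CLSI microdilution method.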

[5] = test system: Methicillin-resistant Staphylococcus aureus (MRSA); format: cell-based; details: Methicillin-resistant
Method in brief: as §2

[6] = test system: carbapenem-resistant Escherichia coli (CREC); format: cell-based; details: carbapenem-resistant (CREC)
Method in brief: as §2

[7] = test system: carbapenem-resistant Klebsiella pneumoniae (CRKP); format: cell-based; details: carbapenem-resistant (CRKP)
Method in brief: as §2

[8] = test system: vancomycin-resistant Enterococcus (VRE); format: cell-based
Method in brief: as §2

[9] = test system: Candida albicans ATCC MYA-2876; format: cell-based
Method in brief: as §1

Candida krusei ATCC 6258 = format: cell-based
Method in brief: as §1

[10] = test system: Serratia marcescens ATCC 29021; format: cell-based
Method in brief: as §1

[11] = test system: Corynebacterium ATCC 7715; format: cell-based
Method in brief: as §1

[12] = test system: Escherichia coli ATCC 25922; format: cell-based
Method in brief: as §1

[13] = test system: Trichophyton ATCC MYA-4438; format: cell-based
Method in brief: as §1

Enterococcus ATCC 29212 = format: cell-based
Method in brief: as §1

[14] = test system: Pseudomonas aeruginosa ATCC 27853; format: cell-based
Method in brief: as §1

[15] = test system: Klebsiella pneumoniae ATCC 700603; format: cell-based
Method in brief: as §1

[16] = test system: Candida tropicalis ATCC 750; format: cell-based
Method in brief: as §1

[17] = test system: Staphylococcus aureus (NRS 384); details: NRS 384, 3 h
Procedure: Trypsin (250 U/mg, pH=8.0) and AMPs (LV-1 to LV-30) were mixed in a ratio of 1:10 (w/w) and added to a reaction buffer (0.2 M sodium phosphate, 1 mM CaCl2), pH 7.5), and then incubated at 37° C. for 3 h.

Compound | MIC Shigella flexneri ATCC 12022 [1] [µg/mL] | Number of mice that died on each day after infection: day 4 [2] [Mouse] | Number of mice that died on each day after infection: day 5 [2] [Mouse] | Number of mice that died on each day after infection: day 6 [2] [Mouse] | Number of mice that died on each day after infection: day 7 [2] [Mouse] | Number of mice that died on each day after infection: day 8 [2] [Mouse] | Average survival times (Days) [2] | Number of mice that died on each day after infection: day 1 [3] [Mouse] | Number of mice that died on each day after infection: day 2 [3] [Mouse] | Number of mice that died on each day after infection: day 3 [3] [Mouse] | Number of mice that died on each day after infection: day 4 [3] [Mouse] | Number of mice that died on each day after infection: day 5 [3] [Mouse] | Average survival times (Days) [3] | MIC CRPA [4] [µg/mL] | MIC MRSA [5] [µg/mL] | MIC CREC [6] [µg/mL] | MIC CRKP [7] [µg/mL] | MIC VRE [8] [µg/mL] | MIC Candida albicans ATCC MYA-2876 [9] [µg/mL] | MIC Candida krusei ATCC 6258 (Candida krusei ATCC 6258) [µg/mL] | also measured
CC(=O)N[C@H](CCCNC(=N)N)C(=O)N[C@H](CCCCN)C(=O)N[C@H](CC(C)C)C(=O)N[C@H](CC(C)C)C(=O)N[C@H](Cc1ccc2ccccc2c1)C(=O)N[C@H](CCCNC(=N)N)C(=O)N[C@H](CC(C)C)C(=O)N[C@H](CCCCN)C(=O)N[C@H](Cc1ccc2ccccc2c1)C(=O)N[C@H](CCCNC(=N)N)C(=O)N[C@H](CCCNC(=N)N)C(N)=O [LV-22] (Ac-[dR][dK][dL][dL][d2Nal][dR][dL][dK][d2Nal][dR][dR]-NH2) | 4 (≈ 2.39 µM) | 0 | 2 | 1 | 1 | 2 | 9.5** Days | 1 | 1 | 0 | 1 | 1 | 9.6*** Days | 8 (≈ 4.78 µM) | 2 (≈ 1.19 µM) | 8 (≈ 4.78 µM) | 2 (≈ 1.19 µM) | 4 (≈ 2.39 µM) | 8 (≈ 4.78 µM) | 8 (≈ 4.78 µM) | MIC Serratia marcescens ATCC 29021 [10]: 4 µg/mL (≈ 2.39 µM); MIC Corynebacterium ATCC 7715 [11]: 4 µg/mL (≈ 2.39 µM); MIC Escherichia coli ATCC 25922 [12]: 2 µg/mL (≈ 1.19 µM); MIC Trichophyton ATCC MYA-4438 [13]: 4 µg/mL (≈ 2.39 µM); MIC Enterococcus ATCC 29212 (Enterococcus ATCC 29212): 2 µg/mL (≈ 1.19 µM); MIC Pseudomonas aeruginosa ATCC 27853 [14]: 2 µg/mL (≈ 1.19 µM); MIC Klebsiella pneumoniae ATCC 700603 [15]: 2 µg/mL (≈ 1.19 µM); MIC Candida tropicalis ATCC 750 [16]: 8 µg/mL (≈ 4.78 µM); Trypsin MIC [17]: 1 µg/mL
CC(=O)N[C@H](CCCCN)C(=O)N[C@H](CCCNC(=N)N)C(=O)N[C@H](CC(C)C)C(=O)N[C@H](CC(C)C)C(=O)N[C@H](Cc1ccc2ccccc2c1)C(=O)N[C@H](CCCCN)C(=O)N[C@H](CC(C)C)C(=O)N[C@H](CCCCN)C(=O)N[C@H](Cc1ccc2ccccc2c1)C(=O)N[C@H](CCCCN)C(=O)N[C@H](CCCNC(=N)N)C(N)=O [LV-23] (Ac-[dK][dR][dL][dL][d2Nal][dK][dL][dK][d2Nal][dK][dR]-NH2) | 2 (≈ 1.24 µM) | 2 | 1 | 1 | 0 | 1 | 9.7** Days | 1 | 1 | 0 | 2 | 0 | 9.5*** Days | 4 (≈ 2.47 µM) | 4 (≈ 2.47 µM) | 2 (≈ 1.24 µM) | 8 (≈ 4.94 µM) | 4 (≈ 2.47 µM) | 16 (≈ 9.89 µM) | 4 (≈ 2.47 µM) | MIC Serratia marcescens ATCC 29021 [10]: 8 µg/mL (≈ 4.94 µM); MIC Corynebacterium ATCC 7715 [11]: 4 µg/mL (≈ 2.47 µM); MIC Escherichia coli ATCC 25922 [12]: 2 µg/mL (≈ 1.24 µM); MIC Trichophyton ATCC MYA-4438 [13]: 16 µg/mL (≈ 9.89 µM); MIC Enterococcus ATCC 29212 (Enterococcus ATCC 29212): 8 µg/mL (≈ 4.94 µM); MIC Pseudomonas aeruginosa ATCC 27853 [14]: 2 µg/mL (≈ 1.24 µM); MIC Klebsiella pneumoniae ATCC 700603 [15]: 4 µg/mL (≈ 2.47 µM); MIC Candida tropicalis ATCC 750 [16]: 4 µg/mL (≈ 2.47 µM); Trypsin MIC [17]: 1 µg/mL
CC(=O)N[C@H](CCCNC(=N)N)C(=O)N[C@H](CCCNC(=N)N)C(=O)N[C@H](CC(C)C)C(=O)N[C@H](CC(C)C)C(=O)N[C@H](Cc1ccc2ccccc2c1)C(=O)N[C@H](CCCCN)C(=O)N[C@H](CC(C)C)C(=O)N[C@H](CCCCN)C(=O)N[C@H](Cc1ccc2ccccc2c1)C(=O)N[C@H](CCCCN)C(=O)N[C@H](CCCNC(=N)N)C(N)=O [LV-24] (Ac-[dR][dR][dL][dL][d2Nal][dK][dL][dK][d2Nal][dK][dR]-NH2) | 2 (≈ 1.21 µM) | 1 | 1 | 0 | 2 | 1 | 10.1*** Days | 1 | 2 | 0 | 0 | 1 | 9.4*** Days | 8 (≈ 4.86 µM) | 4 (≈ 2.43 µM) | 8 (≈ 4.86 µM) | 4 (≈ 2.43 µM) | 2 (≈ 1.21 µM) | 8 (≈ 4.86 µM) | 8 (≈ 4.86 µM) | MIC Serratia marcescens ATCC 29021 [10]: 2 µg/mL (≈ 1.21 µM); MIC Corynebacterium ATCC 7715 [11]: 4 µg/mL (≈ 2.43 µM); MIC Escherichia coli ATCC 25922 [12]: 1 µg/mL (≈ 0.607 µM); MIC Trichophyton ATCC MYA-4438 [13]: 4 µg/mL (≈ 2.43 µM); MIC Enterococcus ATCC 29212 (Enterococcus ATCC 29212): 4 µg/mL (≈ 2.43 µM); MIC Pseudomonas aeruginosa ATCC 27853 [14]: 2 µg/mL (≈ 1.21 µM); MIC Klebsiella pneumoniae ATCC 700603 [15]: 4 µg/mL (≈ 2.43 µM); MIC Candida tropicalis ATCC 750 [16]: 8 µg/mL (≈ 4.86 µM); Trypsin MIC [17]: 1 µg/mL
